Data set [1] relates to Aspergillus fumigatus. In words: Antifungal activity against Aspergillus fumigatus isolate Af293 infected in immunosuppressed ICR mouse assessed as increased survival of mouse at 1 mg/kg, ip once daily until day 7. Format: functional. The following applies: route intraperitoneal.
Data set [2] deals with Aspergillus fumigatus. In words: Antifungal activity against Aspergillus fumigatus isolate Af293 infected in immunosuppressed ICR mouse assessed as conidial equivalents per gram of tissue at 1 mg/kg, ip once daily administered 1 day post infection measured on day 8 by real-time quantitative PCR. Format: functional. The settings on record: route intraperitoneal.
Data set [3] relates to Aspergillus fumigatus. In words: Antifungal activity against Aspergillus fumigatus isolate Af293 infected in immunosuppressed ICR mouse assessed as decreased lung vascular damage at 1 mg/kg, ip once daily measured on day 8 by histopathological analysis. Format: functional, organism-based. More on the design: dose 1 mg/kg.
Data set [4] deals with Aspergillus fumigatus. Description: Antifungal activity against Aspergillus fumigatus isolate Af293 infected in immunosuppressed ICR mouse assessed as pulmonary fungal burden at 1 mg/kg, ip once daily administered 1 day post infection measured on day 8 by real-time quantitative PCR. It counts as functional. The following applies: route intraperitoneal.
The subject of data set [5] is Aspergillus fumigatus. Description: Antifungal activity against Aspergillus fumigatus isolate Af293 infected in immunosuppressed ICR mouse assessed as median survival time at 3 mg/kg, ip once daily. It counts as functional. The settings on record: route intraperitoneal.
In data set [6] the test system is Aspergillus fumigatus. In words: Antifungal activity against Aspergillus fumigatus isolate Af293 infected in immunosuppressed ICR mouse assessed as assessed as decrease in invasive lung disease at 1 mg/kg, ip once daily measured on day 12 by light microscopic analysis. Format: functional, organism-based. More on the design: dose 1 mg/kg.
Data set [7] concerns Aspergillus fumigatus. In words: Antifungal activity against Aspergillus fumigatus isolate Af293 infected in immunosuppressed ICR mouse assessed as increased survival of mouse at 1 mg/kg, ip once daily until day 12. It counts as functional. The following applies: route intraperitoneal.
Data set [8] deals with Aspergillus fumigatus. In words: Antifungal activity against Aspergillus fumigatus isolate Af293 infected in immunosuppressed ICR mouse assessed as median survival time at 1 mg/kg, ip once daily. It counts as functional. The settings on record: route intraperitoneal.
The subject of data set [9] is Aspergillus fumigatus. Description: Antifungal activity against Aspergillus fumigatus isolate Af293 infected in immunosuppressed ICR mouse assessed as decrease in invasive lung disease at 6.25 mg/ml twice daily administered 2 days prior to infection via nebulization measured on day 8 by light microscopic analysis. Format: functional, organism-based.
For data set [10], the system named is Aspergillus fumigatus. Description: Antifungal activity against Aspergillus fumigatus isolate Af293 infected in immunosuppressed ICR mouse assessed as assessed as decrease in invasive lung disease at 1 mg/kg, ip once daily measured on day 8 by light microscopic analysis. Format: functional, organism-based. Also noted: dose 1 mg/kg.
The subject of data set [11] is Aspergillus fumigatus. Description: Antifungal activity against Aspergillus fumigatus isolate Af293 infected in immunosuppressed ICR mouse assessed as decreased lung vascular damage at 1 mg/kg, ip once daily measured on day 12 by histopathological analysis. Also noted: dose 1 mg/kg. Format: functional, organism-based.
Data set [12] deals with Aspergillus fumigatus. Description: Antifungal activity against Aspergillus fumigatus isolate Af293 infected in immunosuppressed ICR mouse assessed as conidial equivalents per gram of tissue at 6.25 mg/ml twice daily administered 2 days prior to infection via nebulization measured on day 8 by real-time quantitative PCR. It counts as functional.
The test system of data set [13] is Aspergillus fumigatus. In words: Antifungal activity against Aspergillus fumigatus isolate Af293 infected in immunosuppressed ICR mouse assessed as increased survival of mouse at 6.25 mg/ml twice daily administered 2 days prior to infection via nebulization until day 7 (Rvb= 25%). Format: functional.
In data set [14] the test system is Aspergillus fumigatus. In words: Antifungal activity against Aspergillus fumigatus isolate Af293 infected in immunosuppressed ICR mouse assessed as decreased lung vascular damage at 6.25 mg/ml twice daily administered 2 days prior to infection via nebulization measured on day 12 by histopathological analysis. Format: functional, organism-based.
A short description of data set [15]: Cmax in mouse serum. It counts as ADME, organism-based.
Data set [16] has as its system Aspergillus fumigatus. Description: Antifungal activity against Aspergillus fumigatus isolate Af293 infected in immunosuppressed ICR mouse assessed as median survival time at 6.25 mg/ml twice daily 2 days prior to infection via nebulization. It counts as functional.
Data set [17] deals with Aspergillus fumigatus. In words: Antifungal activity against Aspergillus fumigatus isolate Af293 infected in immunosuppressed ICR mouse assessed as decreased lung vascular damage at 6.25 mg/ml twice daily administered 2 days prior to infection via nebulization measured on day 8 by histopathological analysis. It counts as functional, organism-based.
The test system of data set [18] is Mus musculus. Description: Toxicity in immunosuppressed ICR mouse assessed as lung injury at 6.25 mg/ml twice daily administered 2 days prior to infection via nebulization. It counts as organism-based. The following applies: in vivo, inhaled_or_intranasal, 48 h.
Data set [19] has as its system Aspergillus fumigatus. In words: Antifungal activity against Aspergillus fumigatus isolate Af293 infected in immunosuppressed ICR mouse assessed as decrease in invasive lung disease at 6.25 mg/ml twice daily administered 2 days prior to infection via nebulization measured on day 12 by light microscopic analysis. It counts as functional, organism-based.
Data set [20] is described as follows: Cmax in mouse lung. Format: ADME, organism-based.
The subject of data set [21] is Aspergillus fumigatus. Description: Antifungal activity against Aspergillus fumigatus isolate Af293 infected in immunosuppressed ICR mouse assessed as pulmonary fungal burden at 6.25 mg/ml twice daily administered 2 days prior to infection via nebulization measured on day 8 by real-time quantitative PCR. It counts as functional.
Data set [22] relates to Aspergillus fumigatus. Description: Antifungal activity against Aspergillus fumigatus isolate Af293 infected in immunosuppressed ICR mouse assessed as increased survival of mouse at 6.25 mg/ml twice daily administered 2 days prior to infection via nebulization until day 12 (Rvb= 17%). It counts as functional.
Data set [23] has as its system Mus musculus. In words: Toxicity in immunosuppressed ICR mouse assessed as inflammatory changes at 6.25 mg/ml twice daily administered 2 days prior to infection via nebulization. Format: organism-based. The settings on record: in vivo, inhaled_or_intranasal, 48 h.

Active and inactive are the calls of the source. No cut-off for these calls is given here.

As to `C[C@@H]1[C@H](O)[C@@H](C)/C=C/C=C/C=C/C=C/C=C/C=C/C=C/[C@H](O[C@@H]2O[C@H](C)[C@@H](O)[C@H](N)[C@@H]2O)C[C@@H]2O[C@](O)(C[C@@H](O)C[C@@H](O)[C@H](O)CC[C@@H](O)C[C@@H](O)CC(=O)O[C@H]1C)C[C@H](O)[C@H]2C(=O)O` [AMPHOTERICIN B], the Activity in the data set on Aspergillus fumigatus [1] was 31%; in the data set with Aspergillus fumigatus [2], 5.26; in the data set with Aspergillus fumigatus [5], 50%; in the data set with Aspergillus fumigatus [7], 23%. Also, the result with Aspergillus fumigatus [3], in the data set with Aspergillus fumigatus [6], in the data set on Aspergillus fumigatus [10] and with Aspergillus fumigatus [11] was inactive. For the same molecule, the log10cfu in the data set with Aspergillus fumigatus [4] is 4.33. The Time in the data set with Aspergillus fumigatus [8] is 7 days. Besides, the result in the data set with Aspergillus fumigatus [9] was Active.
`C[C@@H](c1ncncc1F)[C@](O)(Cn1cncn1)c1ccc(F)cc1F` [VORICONAZOLE]: the Activity is listed as 5.24 with Aspergillus fumigatus [12]; 92% in the data set with Aspergillus fumigatus [13]; “Non-toxic” in the data set on Mus musculus [18]; 67% in the data set on Aspergillus fumigatus [22]; “Non-toxic” in the data set on Mus musculus [23]. Moreover, the result in the data set on Aspergillus fumigatus [14], in the data set on Aspergillus fumigatus [17] and with Aspergillus fumigatus [19] was Active. Besides, the Cmax in [15] stood at 2320 ng/mL; in data set [20] it was 6730 ng/g. Besides, in the data set on Aspergillus fumigatus [16], the Time is above 12 days. Further, the log10cfu in the data set with Aspergillus fumigatus [21] is 4.21.

The values above are taken from ChEMBL document CHEMBL1649437, “Inhaled voriconazole for prevention of invasive pulmonary aspergillosis” (Antimicrob Agents Chemother, 2009).
